Assay results as given in the supplement of paper PMC10307832.

What was measured:
Assay in all cases: relative viability (nuclei count vs DMSO), 5 days (fraction); higher = more cells survive
VX-11e = compound: CC1=CN=C(N=C1C2=CNC(=C2)C(=O)N[C@H](CO)C3=CC(=CC=C3)Cl)NC4=C(C=C(C=C4)F)Cl [VX-11e]
In short: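 Five library-drug doses spaced by √10 were pinned onto vehicle-anchored 1536-well plates of lung cancer cell lines that had been kept overnight at 37 °C. Cells went 5 days without medium change, then were fixed, permeabilised and Hoechst-stained together, imaged at 4× and counted by MetaXpress. Viability is the ratio of treated-well to vehicle-well nuclei, taken as a median over plates. Plates required control CV below 25% and at least one doubling.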

VX-11e + Trametinib = compound: CC1=CN=C(N=C1C2=CNC(=C2)C(=O)N[C@H](CO)C3=CC(=CC=C3)Cl)NC4=C(C=C(C=C4)F)Cl [VX-11e] + CC(=O)Nc1cccc(-n2c(=O)n(C3CC3)c(=O)c3c(Nc4ccc(I)cc4F)n(C)c(=O)c(C)c32)c1 [Trametinib] (partner 0.02 µM)
In short: (§1)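 A single step with final 0.05% Triton X-100, 1% formaldehyde and 1 ug/ml Hoechst fixed the cells and stained nuclei 5 days after treatment. Lung cancer cell lines in 1536-well plates had been treated by pin tool the day after seeding with one drug alone or a fixed anchor-drug dose plus five library-drug doses (not always all listed) in √10 steps, and nuclei were counted on 4× images. Relative viability is the ratio of nuclei in treated wells to nuclei in vehicle wells, taken as the median of duplicate plates.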

VX-11e + Phenformin = compound: CC1=CN=C(N=C1C2=CNC(=C2)C(=O)N[C@H](CO)C3=CC(=CC=C3)Cl)NC4=C(C=C(C=C4)F)Cl [VX-11e] + N=C(N)NC(=N)NCCc1ccccc1 [Phenformin] (partner 250 µM)
In short: as §1

VX-11e + Olaparib = compound: CC1=CN=C(N=C1C2=CNC(=C2)C(=O)N[C@H](CO)C3=CC(=CC=C3)Cl)NC4=C(C=C(C=C4)F)Cl [VX-11e] + O=C(c1cc(Cc2n[nH]c(=O)c3ccccc23)ccc1F)N1CCN(C(=O)C2CC2)CC1 [Olaparib] (partner 8 µM)
In short: as §1

Cell Line	relative viability (VX-11e; 0.04 µM)	relative viability (VX-11e; 0.1265 µM)	relative viability (VX-11e; 1.265 µM)	relative viability (VX-11e; 4 µM)	relative viability (VX-11e + Trametinib; first compound 0.04 µM)	relative viability (VX-11e + Trametinib; first compound 0.1265 µM)	relative viability (VX-11e + Trametinib; first compound 1.265 µM)	relative viability (VX-11e + Trametinib; first compound 4 µM)	relative viability (VX-11e + Phenformin; first compound 0.04 µM)	relative viability (VX-11e + Phenformin; first compound 0.1265 µM)	relative viability (VX-11e + Phenformin; first compound 0.4 µM)	relative viability (VX-11e + Phenformin; first compound 1.265 µM)	relative viability (VX-11e + Phenformin; first compound 4 µM)	relative viability (VX-11e + Olaparib; first compound 0.04 µM)	relative viability (VX-11e + Olaparib; first compound 0.1265 µM)	relative viability (VX-11e + Olaparib; first compound 1.265 µM)	relative viability (VX-11e + Olaparib; first compound 4 µM)	relative viability (VX-11e; 0.4 µM)	relative viability (VX-11e + Trametinib; first compound 0.4 µM)	relative viability (VX-11e + Olaparib; first compound 0.4 µM)
LOU-NH91	0.855	0.924	0.733	0.797	0.813	0.73	0.768	0.691	0.65	0.721	0.312	0.468	0.569	0.887	0.884	0.901	0.839			
HCC-15	1.05	1.01	0.669	0.285	0.354	0.345	0.297	0.246	0.57	0.464		0.211	0.162	0.869	0.794	0.541	0.398			
HCC-827	1.09	0.988	1.14	0.958	0.555	0.568	0.549	0.274	0.409	0.413	0.369	0.479	0.375	0.556	0.609	0.768	0.516	1.07	0.454	0.724
NCI-H1703	0.828	1.11	0.961	0.74										0.403	0.591	0.393	0.316	0.632		
NCI-H322M	0.814	0.517	0.727	0.605	0.468	0.484	0.586	0.46	0.691	0.507	0.7	0.661	0.534	0.705	0.71	0.752	0.54	0.728	0.426	0.525
SK-LU-1	1.09	0.928	0.911	0.346	0.427	0.332	0.25	0.274	0.474	0.492		0.356	0.156	0.537	0.446	0.365	0.239	0.831	0.179	0.394
NCI-H2087	1.05	0.989	0.566	0.293	0.255	0.182	0.181	0.182	0.459	0.462		0.393	0.181	0.646	0.659	0.531	0.252			
201T	0.971	0.985	0.691	0.951	0.737	0.72	0.706	0.689	0.445	0.476	0.38	0.453	0.418	0.846	0.809	0.792	0.773	0.883	0.705	0.832
NCI-H1975	0.95	0.885	0.816	0.598	0.341	0.295	0.255	0.21	0.443	0.362	0.261	0.393	0.199	0.84	0.808	0.803	0.31	0.774	0.171	0.806
NCI-H2085	1.04	0.949	0.84	0.696	0.495	0.516	0.482	0.497	0.6	0.707	0.641	0.449	0.425	0.835	0.758	0.706	0.598	0.923	0.524	0.709
BEN		0.903	0.662	0.782	1.08	0.845	0.798	1.1		0.267	0.256	0.299	0.253	1.04	0.935	0.904	0.994	1.03	1.06	1.11
SW 1573	0.989	0.993	0.778	0.487		0.567	0.401	0.328	0.39	0.346	0.289	0.287	0.154	0.551	0.472	0.398	0.23	0.704	0.498	0.453
NCI-H1793		0.8	0.752	0.301		0.316	0.344	0.27	0.372	0.314		0.34	0.245		0.788	0.751	0.313			
RERF-LC-KJ	1.05	0.895	0.989	0.789	0.888	0.766	0.921	0.667	0.403	0.427	0.408	0.372	0.315	1.11	0.884	0.921	0.979	0.99	0.897	0.945
NCI-H1437	0.98	0.906	0.746	0.621	0.539	0.472	0.358	0.305	0.334	0.257	0.226	0.297	0.225	0.621	0.619	0.529	0.476	0.924	0.574	0.653
NCI-H2009	1.12	0.962	0.481	0.269	0.22	0.209	0.162	0.169	0.575	0.535	0.481	0.251	0.178	0.684	0.635	0.769	0.378	0.932	0.247	0.805
NCI-H1395	0.781	0.846	0.717	0.611	1	0.942	0.895	0.617	0.42	0.405	0.453	0.461	0.398	0.424	0.461	0.499	0.388	0.586		
